Test results taken from patent US8133889B2, “Dihydroindolone compounds, a process for their preparation and pharmaceutical compositions containing them” (Les Laboratoires Servier, priority 2009, dated 2012).

Assays:
[1] = test system: human glioblastoma tumour U87-MG; experiment: Inhibition of growth of the tumour U87-MG grafted subcutaneously in mice; assay type: in vivo, female Nude BalbC mouse; details: oral route; for inhibition of growth: Day 35
Experimental: The human glioblastoma tumour U87-MG was grafted subcutaneously into the female Nude BalbC mouse in an amount of 10^6 cells. The tumours were then randomised into groups of eight mice once the tumour volume had reached 200 mm^3. Daily treatment (6.25, 12.5, 25 and 50 mg/kg) was administered by the oral route (vehicle=water) over a period of 17 days except for the weekends. The tumour volumes were measured twice a week using a sliding calliper. The inhibition of growth found after administration of the compounds according to the invention is statistically significant (two-factor ANOVA, with measurements repeated over time, followed by a DUNETT's test) at all doses tested between Day 21 and Day 35 (date for ethical sacrifice of the mice in the control group in conformity with ethical rules). […] Regression of the order of 70% is observed at a dose of 50 mg/kg.

[2] = test system: A549 (human non-small cell lung carcinoma) cells; experiment: Inhibition of the migration of A549 cells: scratch assay; assay type: cell-based; details: at 30 nM; A549 cells exposed 38 hours; 40 ng/ml HGF
Experimental: Cells from the A549 (human non-small cell lung carcinoma) line are cultured in an incubator at 37° C. in the presence of 5% CO2 in RPMI 1640 medium containing 10% foetal calf serum, 40 ng/ml HGF (hepatocyte growth factor), 2 mM glutamine, 50 units/ml penicillin, 50 μg/ml streptomycin and 10 mM Hepes buffer, pH=7.4. For the migration test, the A549 cells are transferred to 96-well plates (50,000 cells per well) and cultured for 24 hours to obtain cells at confluence. A one-millimetre thick scratch is made in the cell layer, and the cells are exposed to the compounds under test for 38 hours. The cell cultures are then photographed, and filling of the scratch as a result of migration of the cells is assessed.

SMILES	melting point	also measured
CC(=C1C(=O)Nc2ccc(CN3C(=O)CSC3=O)cc21)c1cc(CN2CCOCC2)c[nH]1.Cl	225 °C	
CC(=C1C(=O)Nc2ccc(CN3CCOC3=O)cc21)c1cc(CN2CCOCC2)c[nH]1.Cl	212 °C	
CCN(CC)Cc1c[nH]c(C=C2C(=O)Nc3ccc(CN4CCOC4=O)cc32)c1.Cl	192 °C	
Cc1[nH]c(C=C2C(=O)Nc3ccc(CN4CCOC4=O)cc32)c(C)c1CN1C[C@H]2CCC[C@H]2C1.Cl	204 °C	
CC(=C1C(=O)Nc2ccc(CN3C(=O)COC3=O)cc21)c1cc(CN2CCOCC2)c[nH]1.Cl	220 °C	
Cl.O=C1Nc2ccc(CN3C(=O)CCC3=O)cc2C1=Cc1cc(CN2CCOCC2)c[nH]1	212 °C	
Cl.O=C1Nc2ccc(CN3CCOC3=O)cc2C1=Cc1c[nH]cc1CN1CCOCC1	210 °C	
Cl.O=C1Nc2ccc(CCN3C(=O)CSC3=O)cc2C1=Cc1cc(CN2CCOCC2)c[nH]1	289 °C (dec.)	
CC1(C)OC(=O)N(Cc2ccc3c(c2)C(=Cc2cc(CN4CCOCC4)c[nH]2)C(=O)N3)C1=O.Cl	191 °C	
Cl.O=C1Nc2ccc(CN3C(=O)CSC3=O)cc2C1=Cc1cc(CN2CCOCC2)c[nH]1 [Example 1, 3-[(3-{[4-(4-Morpholinylmethyl)-1H-pyrrol-2-yl]methylene}-2-oxo-2,3-dihydro-1H-indol-5-yl)methyl]-1,3-thiazolidine-2,4-dione hydrochloride]		inhibition of growth ([1]; 6.25 mg/kg daily): 102%; inhibition of growth ([1]; 12.5 mg/kg daily): 84%; inhibition of growth ([1]; 25 mg/kg daily): 98%; regression ([1]; 50 mg/kg daily): ~70%; inhibition of migration (filling of the scratch) [2]: total inhibition
O=C1Nc2ccc(CN3CCOC3=O)cc2C1=Cc1[nH]ccc1CN1CCOCC1 [Example 21, 3-(3-Morpholin-4-ylmethyl-1H-pyrrol-2-ylmethylene)-5-(2-oxo-oxazolidin-3-ylmethyl)-1,3-dihydro-indol-2-one]	192 °C	

The next lines start with results.

melting point	SMILES	also measured
195 °C	Cl.O=C1Nc2ccc(CN3CCOC3=O)cc2C1=Cc1ccc(CN2CCOCC2)[nH]1	
244 °C	Cl.O=C1Nc2ccc(CN3CCSC3=O)cc2C1=Cc1cc(CN2CCOCC2)c[nH]1	
216 °C	Cl.O=C1Nc2ccc(CN3C(=O)COC3=O)cc2C1=Cc1cc(CN2CCOCC2)c[nH]1	
204 °C	Cl.O=C1Nc2ccc(CN3CCOC3=O)cc2C1=Cc1cc(CN2CCCC2)c[nH]1	
256 °C	Cl.O=C1Nc2ccc(CN3CCOC3=O)cc2C1=Cc1cc(CN2CCCCC2)c[nH]1	
198 °C	Cl.O=C1Nc2ccc(CN3C(=O)[C@H]4C[C@H]4C3=O)cc2C1=Cc1cc(CN2CCCCC2)c[nH]1	
179 °C	Cl.O=C1Nc2ccc(CN3CCOC3=O)cc2C1=Cc1cc(CN2C[C@H]3C[C@H]3C2)c[nH]1	
